Patent US20050070510A1, “Substituted tetracycline compounds as synergistic antifungal agents” (Paratek Pharmaceuticals, Inc., priority 2001, published 2005)

tested on: COS-1 cells; assay: In vitro mammalian cytotoxicity assay (Resazurin)

Row | Compound | In Vitro Cytotoxicity
1 | CCCC(Nc1ccc2c(c1O)C(=O)C1=C(O)[C@]3(C#N)C(=O)C(C(N)=O)=C(O)[C@@H](N(C)C)[C@]3(N)[C@@H](O)[C@]1(N)[C@H]2N)C(=O)OCC (stereo partly drawn) [CG] | ** (toxicities less than 25 μg/mL are represented by **)
2 | CN(C)[C@@H]1C(O)=C(C(N)=O)C(=O)[C@@]2(C#N)C(O)=C3C(=O)c4c(ccc(-c5ccc6c(c5)OCO6)c4O)[C@H](N)[C@@]3(N)[C@H](O)[C@@]12N [CH] | ** (toxicities less than 25 μg/mL are represented by **)
3 | C=CCNc1ccc2c(c1O)C(=O)C1=C(O)[C@]3(C#N)C(=O)C(C(N)=O)=C(O)[C@@H](N(C)C)[C@]3(N)[C@@H](O)[C@]1(N)[C@H]2N [CI] | ** (toxicities less than 25 μg/mL are represented by **)
4 | CN(C)[C@@H]1C(O)=C(C(N)=O)C(=O)[C@@]2(C#N)C(O)=C3C(=O)c4c(O)cccc4[C@H](N)[C@@]3(N)[C@H](OC(=O)C34CC5CC(CC(C5)C3)C4)[C@@]12N [CJ] | ** (toxicities less than 25 μg/mL are represented by **)
5 | CN(C)[C@@H]1C(O)=C(C(N)=O)C(=O)[C@@]2(C#N)C(O)=C3C(=O)c4c(O)cccc4/C(=C\c4cccc(C(N)=O)c4)[C@@]3(N)[C@H](O)[C@@]12N [CK] | * (toxicities greater than >25 μg/ml are represented by *)
6 | CN(C)[C@@H]1C(O)=C(C(N)=O)C(=O)[C@@]2(C#N)C(O)=C3C(=O)c4c(O)ccc(I)c4[C@H](N)[C@@]3(N)[C@H](O)[C@@]12N [CL] | ** (toxicities less than 25 μg/mL are represented by **)
7 | CCC(=O)O[C@H]1[C@@]2(N)C(=C(O)[C@]3(C#N)C(=O)C(C(N)=O)=C(O)[C@@H](N(C)C)[C@]13N)C(=O)c1c(O)ccc(I)c1[C@@H]2N [CM] | ** (toxicities less than 25 μg/mL are represented by **)
8 | CN(C)[C@@H]1C(O)=C(C(N)=O)C(=O)[C@@]2(C#N)C(O)=C3C(=O)c4c(O)ccc(-c5ccccn5)c4[C@H](N)[C@@]3(N)[C@H](O)[C@@]12N [CN] | * (toxicities greater than >25 μg/ml are represented by *)
9 | CN(C)[C@@H]1C(O)=C(C(N)=O)C(=O)[C@@]2(C#N)C(O)=C3C(=O)c4c(ccc(Br)c4O)[C@H](N)[C@@]3(N)[C@H](O)[C@@]12N [CO] | * (toxicities greater than >25 μg/ml are represented by *)
10 | CN(C)[C@@H]1C(O)=C(C(N)=O)C(=O)[C@@]2(C#N)C(O)=C3C(=O)c4c(O)ccc(-c5ccc(F)cc5)c4[C@H](N)[C@@]3(N)[C@H](O)[C@@]12N [CQ] | ** (toxicities less than 25 μg/mL are represented by **)
11 | CC(=O)c1ccc(O)c2c1[C@H](N)[C@]1(N)C(=C(O)[C@]3(C#N)C(=O)C(C(N)=O)=C(O)[C@@H](N(C)C)[C@]3(N)[C@H]1O)C2=O [CR] | ** (toxicities less than 25 μg/mL are represented by **)
12 | CN(C)[C@@H]1C(O)=C(C(N)=O)C(=O)[C@@]2(C#N)C(O)=C3C(=O)c4c(O)c(I)cc(I)c4[C@H](N)[C@@]3(N)[C@H](O)[C@@]12N [CT] | ** (toxicities less than 25 μg/mL are represented by **)
13 | CN(C)[C@@H]1C(O)=C(C(N)=O)C(=O)[C@@]2(C#N)C(O)=C3C(=O)c4c(O)ccc(I)c4C[C@@]3(N)C[C@@]12N [CU] | ** (toxicities less than 25 μg/mL are represented by **)
14 | CN(C)[C@@H]1C(O)=C(C(N)=O)C(=O)[C@@]2(C#N)C(O)=C3C(=O)c4c(O)ccc(I)c4[C@H](N)[C@@]3(N)[C@H](OC(=O)C3CCCCC3)[C@@]12N [CV] | ** (toxicities less than 25 μg/mL are represented by **)
15 | CN(C)[C@@H]1C(O)=C(C(N)=O)C(=O)[C@@]2(C#N)C(O)=C3C(=O)c4c(O)ccc(-c5ccc(I)cc5)c4C[C@@]3(N)C[C@@]12N [CW] | ** (toxicities less than 25 μg/mL are represented by **)
